Experimental findings from patent publication US20250313535A1, “ALPHA 4 BETA 7 INTEGRIN MODULATORS AND USES THEREOF” (DICE MOLECULES SV, INC., priority 2022, published 2025) are described below.

Structures are written as SMILES. Read-outs that look alike come from different tables or passages of the source.

One test deals with α4β1 integrin (Homo sapiens (Human), UniProt P05556+P13612). Briefly: Integrin Adhesion Assay: Protocol 5 (VCAM-coated plate, RPMI-8866 cells with stable LOF mutation of the ITGB7 gene). The class given is cell-based. The method, boiled down:
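RPMI-8866 B cells with CRISPR/Cas9 ITGB7 knockout (clonal, verified by flow cytometry) adhered to VCAM-coated wells for 1 h at 37° C in HEPES/NaCl buffer with 1 mM MnCl2, 0.1 mM CaCl2, 1% BSA, 1% DMSO. Bound cells quantified by CellTiter-Glo luminescence after washing; % inhibition versus DMSO and control, 4-parameter fit.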

Another test concerns the target α4β7 integrin (Homo sapiens (Human), UniProt P13612+P26010). Briefly: Integrin Adhesion Assay: Protocol 4 (MAdCAM-coated plate, RPMI-8866 cells with stable LOF mutation of the ITGB1 gene). The class given is cell-based. The method, boiled down: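 RPMI-8866 cells with CRISPR/Cas9 knockout of ITGB1 (2×10^6/mL) were added to MAdCAM-coated wells with compound (1% DMSO) in HEPES/NaCl buffer with 1 mM MnCl2, 0.1 mM CaCl2 and 1% BSA, then incubated 1 h at 37 °C. After four washes, adherent cells were quantified by CellTiter-Glo luminescence. Percent inhibition versus DMSO and control compound was fitted to 4-parameter curves.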

[1] abbreviates: Protocol 5, RPMI-8866 cells with LOF mutation of ITGB7, VCAM, read-out: Mean IC50 α4β1 KO.
Setting [2] is: Protocol 4, RPMI-8866 cells with LOF mutation of ITGB1, MAdCAM, read-out: Mean IC50 α4β7 KO.
[3] abbreviates: RPMI-8866 cells with stable LOF mutation of the ITGB7 gene, read-out: Mean IC50 α4β1 KO^b.
The mark [4] stands for this setting: RPMI-8866 cells with stable LOF mutation of the ITGB1 gene, read-out: Mean IC50 α4β7 KO^a.

Sequence of α4β1 integrin (P13612 34-1032): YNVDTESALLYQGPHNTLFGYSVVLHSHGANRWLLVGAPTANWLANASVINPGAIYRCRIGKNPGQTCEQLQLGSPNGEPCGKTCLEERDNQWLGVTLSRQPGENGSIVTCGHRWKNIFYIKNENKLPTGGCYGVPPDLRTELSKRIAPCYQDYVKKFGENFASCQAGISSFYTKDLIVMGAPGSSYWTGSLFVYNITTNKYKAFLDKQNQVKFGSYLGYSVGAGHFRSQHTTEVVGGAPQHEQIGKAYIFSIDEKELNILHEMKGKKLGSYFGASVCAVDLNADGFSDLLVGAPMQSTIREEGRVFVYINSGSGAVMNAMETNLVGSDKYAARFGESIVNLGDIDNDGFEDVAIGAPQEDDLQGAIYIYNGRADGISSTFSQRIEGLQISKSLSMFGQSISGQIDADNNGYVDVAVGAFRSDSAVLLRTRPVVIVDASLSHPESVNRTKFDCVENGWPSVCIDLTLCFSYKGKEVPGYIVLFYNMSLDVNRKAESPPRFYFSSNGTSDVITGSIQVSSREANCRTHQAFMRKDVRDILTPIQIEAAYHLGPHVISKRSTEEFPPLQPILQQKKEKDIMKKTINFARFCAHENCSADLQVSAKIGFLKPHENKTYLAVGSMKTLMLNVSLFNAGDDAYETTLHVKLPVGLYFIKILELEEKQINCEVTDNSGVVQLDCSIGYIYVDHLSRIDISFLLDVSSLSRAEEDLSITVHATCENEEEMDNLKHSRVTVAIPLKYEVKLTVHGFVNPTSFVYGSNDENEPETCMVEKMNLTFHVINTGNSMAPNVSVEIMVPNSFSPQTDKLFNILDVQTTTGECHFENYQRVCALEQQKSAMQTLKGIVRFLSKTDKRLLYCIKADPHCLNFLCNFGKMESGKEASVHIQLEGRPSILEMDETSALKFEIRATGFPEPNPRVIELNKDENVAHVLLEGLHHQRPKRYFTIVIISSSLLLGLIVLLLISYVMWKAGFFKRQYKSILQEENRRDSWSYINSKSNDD
Sequence of α4β1 integrin (P05556 21-798): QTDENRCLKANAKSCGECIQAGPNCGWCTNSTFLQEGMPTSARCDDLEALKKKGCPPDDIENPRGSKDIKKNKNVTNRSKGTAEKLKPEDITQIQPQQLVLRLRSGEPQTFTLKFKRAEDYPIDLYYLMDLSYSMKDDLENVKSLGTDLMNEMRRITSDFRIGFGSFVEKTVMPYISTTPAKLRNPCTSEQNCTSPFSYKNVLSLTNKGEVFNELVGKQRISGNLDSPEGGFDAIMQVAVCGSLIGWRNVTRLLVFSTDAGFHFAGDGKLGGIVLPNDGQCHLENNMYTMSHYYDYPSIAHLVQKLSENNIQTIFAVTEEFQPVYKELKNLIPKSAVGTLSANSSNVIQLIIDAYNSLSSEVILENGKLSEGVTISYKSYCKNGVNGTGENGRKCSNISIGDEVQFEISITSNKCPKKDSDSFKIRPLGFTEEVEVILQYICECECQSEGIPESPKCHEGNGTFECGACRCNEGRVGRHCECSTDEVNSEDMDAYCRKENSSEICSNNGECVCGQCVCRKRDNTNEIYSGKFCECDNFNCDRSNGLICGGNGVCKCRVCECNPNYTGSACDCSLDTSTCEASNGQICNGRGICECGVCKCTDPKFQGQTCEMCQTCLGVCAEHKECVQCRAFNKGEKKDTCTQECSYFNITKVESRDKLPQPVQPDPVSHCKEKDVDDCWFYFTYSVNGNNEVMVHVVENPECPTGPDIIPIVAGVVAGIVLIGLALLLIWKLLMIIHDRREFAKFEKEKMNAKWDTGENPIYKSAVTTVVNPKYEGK
Sequence of α4β7 integrin (P13612 34-1032): as the sequence (P13612 34-1032) above
Sequence of α4β7 integrin (P26010 20-798): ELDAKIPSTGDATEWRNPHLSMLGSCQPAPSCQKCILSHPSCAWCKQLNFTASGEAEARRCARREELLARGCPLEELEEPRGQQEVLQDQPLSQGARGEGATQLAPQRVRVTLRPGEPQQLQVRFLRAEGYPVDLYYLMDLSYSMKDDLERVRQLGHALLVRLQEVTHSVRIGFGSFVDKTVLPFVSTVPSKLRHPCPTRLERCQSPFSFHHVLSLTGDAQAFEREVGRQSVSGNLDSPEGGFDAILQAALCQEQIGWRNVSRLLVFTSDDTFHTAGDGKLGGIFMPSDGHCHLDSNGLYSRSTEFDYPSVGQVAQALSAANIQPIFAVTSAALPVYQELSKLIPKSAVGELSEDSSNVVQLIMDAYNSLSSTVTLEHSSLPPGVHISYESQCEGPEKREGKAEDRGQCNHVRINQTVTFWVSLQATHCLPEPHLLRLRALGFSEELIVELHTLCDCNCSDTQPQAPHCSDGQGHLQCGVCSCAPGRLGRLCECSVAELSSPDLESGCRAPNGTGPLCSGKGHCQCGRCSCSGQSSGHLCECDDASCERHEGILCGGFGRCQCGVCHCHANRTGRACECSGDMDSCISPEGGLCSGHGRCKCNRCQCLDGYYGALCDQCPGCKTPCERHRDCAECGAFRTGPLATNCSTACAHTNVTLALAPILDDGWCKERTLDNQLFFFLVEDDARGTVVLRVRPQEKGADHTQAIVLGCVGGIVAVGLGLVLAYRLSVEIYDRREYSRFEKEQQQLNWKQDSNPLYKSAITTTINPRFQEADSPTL

Regarding `O=C(O)[C@H](Cc1cccc2c(-c3ncc(CN4CCCCC4)c4ccccc34)cccc12)NC(=O)C1(C(F)(F)F)CCN(CC(F)(F)F)CC1` [Compound 787], the IC50 (in general, the midpoint of a concentration-inhibition curve) is greater than 1000 nM on α4β1 integrin (setting [1]) and less than 10 nM at α4β7 integrin (setting [2]).
For `COc1c(CN2CCCCC2)ccc(C(F)(F)F)c1-c1cccc2c(C[C@H](NC(=O)C3(C(F)(F)F)CCN(CC(F)(F)F)CC3)C(=O)O)cccc12` [Compound 662], the IC50 at α4β1 integrin (setting [3]) was greater than 1000 nM; at α4β7 integrin (setting [4]) it was 10 to 100 nM.
For `COc1ccc(CN2CCC[C@@H](F)C2)c(OC)c1-c1cccc2c(C[C@H](NC(=O)c3c(C)cccc3F)C(=O)O)cccc12` [Compound 672], in that order: 100 to 1000 nM and less than 10 nM.
For `O=C(O)[C@H](Cc1cccc2c(-c3ncc(CN4CCC5(CC4)CC5)c4ccccc34)cccc12)NC(=O)C1(C(F)(F)F)CCN(C2COC2)CC1` [Compound 694], the IC50 at α4β1 integrin (setting [1]) is 100 to 1000 nM; on α4β7 integrin (setting [2]), less than 10 nM.
Regarding `Cn1c(=O)c(-c2cccc3c(C[C@H](NC(=O)C4(C(F)(F)F)CCN(CC(F)F)CC4)C(=O)O)cccc23)c(C(F)(F)F)c2ccccc21` (racemic) [Compound 480], the IC50 at α4β1 integrin (setting [3]) is 100 to 1000 nM; on α4β7 integrin (setting [4]), less than 10 nM.
Turning to `CC[C@H]1CCCCN1Cc1cnc(-c2cccc3c(C[C@H](NC(=O)C4(C(F)(F)F)CCN(CC(F)F)CC4)C(=O)O)cccc23)c2ccccc12` [Compound 930], the IC50 at α4β1 integrin (setting [1]) was 100 to 1000 nM; on α4β7 integrin (setting [2]), less than 10 nM.
Take `COc1ccc(CN(C)C)c(OC)c1-c1cccc2c(C[C@H](NC(=O)c3c(C)cccc3Cl)C(=O)O)cccc12` [Compound 613]: the IC50 is 100 to 1000 nM on α4β1 integrin (setting [3]) and less than 10 nM on α4β7 integrin (setting [4]).
The like results for `O=C(O)[C@H](Cc1cccc2c(-c3nccc4ccccc34)cccc12)NC(=O)C1(C(F)(F)F)CCN(C2COC2)CC1` [Compound 497] were, in that order, greater than 1000 nM and less than 10 nM.
`COc1c(-c2cccc3c(C[C@H](NC(=O)C4(C(F)(F)F)CCN(CC(F)F)CC4)C(=O)O)cccc23)cc(CN2CCCCC2)cc1C(F)(F)F` [Compound 764]: the values for the IC50 on α4β1 integrin (setting [1]) and at α4β7 integrin (setting [2]) were greater than 1000 nM and 10 to 100 nM, respectively.
The like results for `COc1ccc(C2(N(C)C)CC2)c(OC)c1-c1cccc2c(C[C@H](NC(=O)c3c(C)cccc3F)C(=O)O)cccc12` [Compound 1045] were, in that order, 100 to 1000 nM and less than 10 nM.
Consider `CCOCCN1CCC(C(=O)N[C@@H](Cc2cccc3c(-c4c(C(F)(F)F)c5ccccc5n(C)c4=O)cccc23)C(=O)O)(C(F)(F)F)CC1` [Compound 503], for which the IC50 lay in the range of 100 to 1000 nM at α4β1 integrin (setting [3]) and 10 to 100 nM on α4β7 integrin (setting [4]).
With `O=C(O)[C@H](Cc1cccc2c(-c3ncc(CN4CCOCC4)c4ccccc34)cccc12)NC(=O)C1(C(F)(F)F)CCN(CC(F)F)CC1` [Compound 878], the IC50 was 100 to 1000 nM at α4β1 integrin (setting [1]) and less than 10 nM on α4β7 integrin (setting [2]).
For `Cn1c(=O)c(-c2cccc3c(C[C@H](NC(=O)C4(C(F)(F)F)CCCN(CC5COC5)C4)C(=O)O)cccc23)c(C(F)(F)F)c2ccccc21` (stereo partly drawn) [Compound 1049], in that order: greater than 1000 nM and 100 to 1000 nM.
As to `O=C(O)[C@H](Cc1cccc2c(-c3nccc4c(CN5CCC(F)(F)C5)cccc34)cccc12)NC(=O)C1(C(F)(F)F)CCN(CC(F)(F)F)CC1` [Compound 594], the IC50 on α4β1 integrin (setting [3]) was greater than 1000 nM; at α4β7 integrin (setting [4]) it was 10 to 100 nM.
Take `CC1CCN(Cc2cnc(-c3cccc4c(C[C@H](NC(=O)C5(C(F)(F)F)CCN(CC(F)F)CC5)C(=O)O)cccc34)c3ccccc23)CCC1(F)F` (stereo partly drawn) [Compound 926]: the results for the IC50 on α4β1 integrin (setting [1]) and at α4β7 integrin (setting [2]) were greater than 1000 nM and less than 10 nM, respectively.
The like results for `O=C(O)[C@H](Cc1cccc2c(-c3nccc4ccc(CN5CCCCC5)cc34)cccc12)NC(=O)C1(C(F)(F)F)CCN(CC(F)(F)F)CC1` [Compound 786] were, in that order, greater than 1000 nM and 10 to 100 nM.
The like results for `COc1cc(CN2CCC(F)(F)CC2)cc(OC)c1-c1cccc2c(C[C@H](NC(=O)C3(C(F)(F)F)CCN(CC(F)(F)F)CC3)C(=O)O)cccc12` [Compound 795] were, in that order, 100 to 1000 nM and less than 10 nM.
`CCC1(C(=O)N[C@@H](Cc2cccc3c(-c4ncc(CN5CCCCC5)c5ccccc45)cccc23)C(=O)O)CCN(CC(F)(F)F)CC1` [Compound 676]: the figures for the IC50 at α4β1 integrin (setting [3]) and on α4β7 integrin (setting [4]) were greater than 1000 nM and less than 10 nM, respectively.
Regarding `COc1cc2c(c(C)c1-c1cccc3c(C[C@H](NC(=O)C4(C(F)(F)F)CCN(CC(F)(F)F)CC4)C(=O)O)cccc13)CN(C)CC2` [Compound 724], the figures for the IC50 at α4β1 integrin (setting [1]) and on α4β7 integrin (setting [2]) were 10 to 100 nM and less than 10 nM, respectively.
Regarding `COc1ccc(CCN2CCC3(CCCCC3)CC2)c(OC)c1-c1cccc2c(C[C@H](NC(=O)C3(C(F)(F)F)CCN(CC(F)(F)F)CC3)C(=O)O)cccc12` [Compound 957], the figures for the IC50 on α4β1 integrin (setting [1]) and at α4β7 integrin (setting [2]) were 100 to 1000 nM and less than 10 nM, respectively.
The like results for `COc1cccc(CCN2CCC[C@@H](F)C2)c1-c1cccc2c(C[C@H](NC(=O)C3(C(F)(F)F)CCN(CC(F)(F)F)CC3)C(=O)O)cccc12` [Compound 985] were, in that order, 100 to 1000 nM and less than 10 nM.
`Cc1cc(CN2CCC(C)(C)CC2)cnc1-c1cccc2c(C[C@H](NC(=O)C3(C(F)(F)F)CCN(CC(F)F)CC3)C(=O)O)cccc12` [Compound 902]: the IC50 on α4β1 integrin (setting [1]) was greater than 1000 nM; on α4β7 integrin (setting [2]) it was less than 10 nM.
Take `Cc1cccc(F)c1C(=O)N[C@@H](Cc1cccc2c(-c3nccc4c(CN5CCCC5)cccc34)cccc12)C(=O)O` [Compound 619]: the results for the IC50 at α4β1 integrin (setting [3]) and on α4β7 integrin (setting [4]) were greater than 1000 nM and less than 10 nM, respectively.
For `COc1ccc(CN2CCC(C)CC2)c(OC)c1-c1cccc2c(C[C@H](NC(=O)c3c(C)cccc3F)C(=O)O)cccc12` [Compound 625], in that order: 100 to 1000 nM and less than 10 nM.
For `Cn1c(=O)c(-c2cccc3c(C[C@H](NC(=O)C4(C(F)(F)F)CCN(CCC(F)(F)F)CC4)C(=O)O)cccc23)c(C(F)(F)F)c2ccccc21` [Compound 536], the values for the IC50 at α4β1 integrin (setting [3]) and on α4β7 integrin (setting [4]) were greater than 1000 nM and 10 to 100 nM, respectively.
`O=C(O)[C@H](Cc1cccc2c(-c3nccc4ccccc34)cccc12)NC(=O)C1(C(F)(F)F)CCN(CC(F)(F)F)CC1` [Compound 723]: the figures for the IC50 on α4β1 integrin (setting [1]) and on α4β7 integrin (setting [2]) were greater than 1000 nM and 10 to 100 nM, respectively.
Turning to `O=C(O)[C@H](Cc1cccc2c(-c3nccc4ccc(CCCN5C6CCCC5CC6)cc34)cccc12)NC(=O)C1(C(F)(F)F)CCN(CC(F)(F)F)CC1` [Compound 744], the IC50 was greater than 1000 nM on α4β1 integrin (setting [1]) and less than 10 nM at α4β7 integrin (setting [2]).
Take `CC(=O)CN1CCC(C(=O)N[C@@H](Cc2cccc3c(-c4c(C(F)(F)F)c5ccccc5n(C)c4=O)cccc23)C(=O)O)(C(F)(F)F)CC1` [Compound 519]: the IC50 at α4β1 integrin (setting [3]) is 100 to 1000 nM; at α4β7 integrin (setting [4]), less than 10 nM.
`COc1ccc(CN2CC[C@@H](F)C2)cc1-c1cccc2c(C[C@H](NC(=O)C3(C(F)(F)F)CCN(CC(F)F)CC3)C(=O)O)cccc12` [Compound 944]: the IC50 on α4β1 integrin (setting [1]) is 100 to 1000 nM; on α4β7 integrin (setting [2]) it was less than 10 nM.
With `COc1c(CN2CCCCC2)ccc(Cl)c1-c1cccc2c(C[C@H](NC(=O)C3(C(F)(F)F)CCN(CC(F)(F)F)CC3)C(=O)O)cccc12` [Compound 799], the IC50 at α4β1 integrin (setting [1]) was greater than 1000 nM; on α4β7 integrin (setting [2]), less than 10 nM.
With `COc1ccc(CN2CCCCC2)c(OC)c1-c1cccc2c(C[C@H](NC(=O)c3c(F)cccc3C#N)C(=O)O)cccc12` [Compound 646], the IC50 on α4β1 integrin (setting [3]) is greater than 1000 nM; on α4β7 integrin (setting [4]) it was 100 to 1000 nM.
`CC[C@@H](N1CCC(C(=O)N[C@@H](Cc2cccc3c(-c4c(C(F)(F)F)c5ccccc5n(C)c4=O)cccc23)C(=O)O)(C(F)(F)F)CC1)C(F)(F)F` [Compound 484]: the IC50 was greater than 1000 nM at α4β1 integrin (setting [3]) and 100 to 1000 nM on α4β7 integrin (setting [4]).
With `COc1ccc(CCN2CCCCC2)cc1-c1cccc2c(C[C@H](NC(=O)c3c(C)cccc3F)C(=O)O)cccc12` [Compound 1001], the IC50 on α4β1 integrin (setting [1]) is greater than 1000 nM; at α4β7 integrin (setting [2]) it was 10 to 100 nM.
Turning to `O=C(O)[C@H](Cc1cccc2c(-c3ccc(CN4CCCCC4)c4ccncc34)cccc12)NC(=O)C1(C(F)(F)F)CCN(CC(F)(F)F)CC1` [Compound 702], the figures for the half-inhibitory concentration (IC50) at α4β1 integrin (setting [1]) and at α4β7 integrin (setting [2]) were greater than 1000 nM and less than 10 nM, respectively.
For `CCOCc1cc(CN2CCCCC2)c(-c2cccc3c(C[C@H](NC(=O)C4(C(F)(F)F)CCN(CC(F)(F)F)CC4)C(=O)O)cccc23)c(OC)c1` [Compound 751], in that order: greater than 1000 nM and 10 to 100 nM.
In the case of `O=C(O)[C@H](Cc1cccc2c(-c3nccc4ccc(CCCN5CCCCC5)cc34)cccc12)NC(=O)C1(C(F)(F)F)CCN([C@H]2COCC2(F)F)CC1` [Compound 482], the IC50 is 100 to 1000 nM on α4β1 integrin (setting [3]) and less than 10 nM at α4β7 integrin (setting [4]).
As for `COc1ccc2c(c1-c1cccc3c(C[C@H](NC(=O)C4(C(F)(F)F)CCN(CC(F)(F)F)CC4)C(=O)O)cccc13)CN(CC(F)F)CC2` [Compound 753], the IC50 was greater than 1000 nM at α4β1 integrin (setting [1]) and 10 to 100 nM at α4β7 integrin (setting [2]).
For the compound `COc1ccc(CN2CCCC(C)C2)c(OC)c1-c1cccc2c(C[C@H](NC(=O)C3(C(F)(F)F)CCN(CC(F)(F)F)CC3)C(=O)O)cccc12` (stereo partly drawn) [Compound 790], the values for the IC50 on α4β1 integrin (setting [1]) and on α4β7 integrin (setting [2]) were 100 to 1000 nM and less than 10 nM, respectively.
With `COc1ccc(CN2CCCCC2)c(OC)c1-c1cccc2c(C[C@H](NC(=O)c3c(F)cccc3-c3ccccc3)C(=O)O)cccc12` [Compound 648], the IC50 is greater than 1000 nM at α4β1 integrin (setting [3]) and less than 10 nM at α4β7 integrin (setting [4]).
